According to publication PMC6973020, “Quinoline‐Conjugated Ruthenacarboranes: Toward Hybrid Drugs with a Dual Mode of Action” (Chemmedchem, 2019):

Columns and labels:
MCF‐7 cells [1] = assay: Wound healing assay, MCF‐7; type: cell-based, human; conditions: MCF‐7, 20 μM, 72 h
LN229 human glioblastoma = assay: MTT cell viability assay, LN229; type: cell-based; conditions: 72 h
Source text: (§1) Thus, care must be taken when comparing their biological activities with those of our previous studies, even with the same cell line, because the covalent vs. non‐covalent combination of drugs might imply different mechanisms of action in the cell.44 Here, we studied the in vitro activity of ruthenacarborane 3, i. e. free acid, and its 8‐hydroxyquinolyl (4) and 4‐{(7‐chloroquinolin‐4‐yl)oxy}butanol‐1‐yl (5) esters, against a panel of cancer cell lines (B16 mouse melanoma, A375 human skin melanoma, MCF‐7 human breast adenocarcinoma, LN229 human glioblastoma, U251 human glioma). Human fibroblast cell line MRC‐5, murine microglial cell line BV‐2 as well as peritoneal exudate cells (Mph), were chosen as models for non‐malignant cells. […] On the other side, we wanted to assess the reproducibility of the viability data, under either controlled (with BSA) or uncontrolled (without BSA) conditions, in two sets of independent assays. […] Cells were exposed to 3–5 for 72 h, after which cell viability was determined via 3‐(4,5‐dimethylthiazol‐2‐yl)‐2,5‐diphenyltetrazolium bromide (MTT) and crystal violet (CV) assays, in parallel (Table 2). Cisplatin was also tested as reference.
(§2) Preparation of drug solutions. […] Stock solution of cisplatin was prepared in DMF (10 mM) immediately before use. A stock solution of BSA in PBS was prepared at 1.28 mM concentration, and stored at 4 °C in the dark. […] Alternatively, 3 or 4 (DMSO stock solution) were added to the BSA solution in PBS, always with a 10 : 1 molar ratio of BSA to ruthenacarborane. The BSA−ruthenacarborane solutions were incubated 0.5–1 h at room temperature, then diluted with cell culture medium to the desired final concentrations. Final concentrations of 3 and 4 were the same as for the BSA‐free formulation. Final DMSO was 0.02–0.5 vol %.
(§3) Colorimetric assays for cellular viability. […] For counting the number of attached (viable) cells, cells were fixed with 4 % (w/v) paraformaldehyde for 10 min at room temperature, and subsequently stained for 15 min with […] crystal violet (CV) solution. Cells were then washed with tap water, dried in air, and the CV dye was dissolved in 33 % (w/v) acetic acid solution. For the detection of mitochondrial respiration, cells were cultivated in MTT staining solution (0.5 mg mL^−1) for approximately 1 h. The dye was then discarded, and the formed formazan (purple) was dissolved in DMSO. The absorbance was measured with an automated microplate reader at λmax 540 nm, with the reference λmax 670 nm. Untreated cells or cells treated only with BSA (control) were also measured, as reference for BSA‐free and BSA‐containing drug formulations, respectively. […] Cell viability is expressed as percentage (%) relative to control (untreated cultures).58 Experiments were run in three independent replicates. […]

MCF‐7 cells [2] = assay: CFSE staining, flow cytometry, MCF‐7; type: cell-based, human; conditions: MCF‐7, 20 μM, 72 h
Protocol: (§4) Flow cytometry. For gaining better insights into the mechanisms of action of the ruthenium complexes, MCF‐7 and LN229 cells incubated with an IC50 dose of 3 or 4, were analyzed via flow cytometry. Several staining protocols were carried out in parallel, in independent experiments: i) AnnV/PI for the detection of apoptotic cell death, ii) AO for the detection of acidic vacuoles, iii) ApoStat for checking caspase activation, iv) CFSE for detecting interference with cellular proliferation, and v) DAPI for the detection of morphological signs of apoptosis. Untreated cells or cells treated only with BSA (control) were also measured, as reference for BSA‐free and BSA‐containing drug formulations, respectively. […] Channels FL1 (green emission), FL2 (orange emission) and/or FL3 (dark red emission) were used for fluorescence detection, according to the specific staining agent. Sideward Scatter (SSC) for MCF‐7 cells treated with 4 or BSA−4 was also analyzed, with respect to the control, for detection of shifts of cell granularity. […]
(§5) Staining Protocols for Flow Cytometric Analysis. […] Finally, cells were washed in PBS, resuspended in PBS (or AnnV‐binding buffer for AnnV/PI), and analysed. […] Cells were then washed, trypsinised, dissolved in PBS and analysed by CyFlow® Space Partec using the PartecFloMax® software (Partec GmbH, Münster, Germany). […]

LN229 cells = assay: CFSE staining, flow cytometry, LN229; type: cell-based, human; conditions: LN229, 40 μM, 72 h
Protocol: as §4, §5

[3] = system: murine microglial cell line BV‐2; assay: MTT cell viability assay, BV‐2; type: cell-based, mouse; conditions: 72 h
Source text: as §1
Preparation of drug solutions. […] Stock solution of cisplatin was prepared in DMF (10 mM) immediately before use. A stock solution of BSA in PBS was prepared at 1.28 mM concentration, and stored at 4 °C in the dark. […] Alternatively, 3 or 4 (DMSO stock solution) were added to the BSA solution in PBS, always with a 10 : 1 molar ratio of BSA to ruthenacarborane. […]
Colorimetric assays for cellular viability. […] The absorbance was measured with an automated microplate reader at λmax 540 nm, with the reference λmax 670 nm. Untreated cells or cells treated only with BSA (control) were also measured, as reference for BSA‐free and BSA‐containing drug formulations, respectively. […] Cell viability is expressed as percentage (%) relative to control (untreated cultures).58 Experiments were run in three independent replicates. […]

[4] = system: MCF‐7 human breast adenocarcinoma; assay: Crystal violet (CV) cell viability assay, MCF‐7; type: cell-based; conditions: 72 h
Source text: as §1, §2, §3

Substance | cell migration (wound healing assay, in words) (MCF‐7 cells [1]) | IC50 (LN229 human glioblastoma) [µM] | cellular proliferation (CFSE staining) (MCF‐7 cells [2]) | cellular proliferation (CFSE staining) (LN229 cells) | IC50 [3] [µM] | IC50 [4] [µM]
closo ‐[3‐(η^6‐p‐Cymene)‐1‐(quinolin‐8‐yl‐acetate)‐3,1,2‐RuC2B9H10] [Compound 4] | inhibited cell migration | 42.4 ± 3.9 | inhibition of cellular proliferation | strong inhibition of cellular proliferation | 8.7 ± 0.1 | 16.9 ± 1.1
closo‐ [Compound 3, closo‐ [3‐(η^6‐p‐Cymene)‐1‐(CH2COOH)‐3,1,2‐RuC2B9H10]] | inhibited cell migration | 80.1 ± 4 | inhibition of cellular proliferation |  | 64.7 ± 0.7 | 22.9 ± 1.4
